Tests used:
Aurora kinase B [1] = target: T1, Aurora kinase B (Homo sapiens, UniProt Q96GD4); assay: Inhibition of Aurora B
Aurora kinase B [2] = target: T1, Aurora kinase B; assay: Inhibition of Aurora B in human HCT116 cells assessed as inhibition of histone H3 phosphorylation by immunofluorescence assay; type: cell-based, HCT-116
[3] = AUC (0 to 6 hrs) in rat at 10 mg/kg, po; type: ADME, organism-based; design: time < 6 hr, dose 10 mg/kg, route oral; conditions: plasma
Aurora kinase A = target: T2, Aurora kinase A (Homo sapiens, UniProt O14965); assay: Inhibition of Aurora A
T2 sequence (O14965 whole entry): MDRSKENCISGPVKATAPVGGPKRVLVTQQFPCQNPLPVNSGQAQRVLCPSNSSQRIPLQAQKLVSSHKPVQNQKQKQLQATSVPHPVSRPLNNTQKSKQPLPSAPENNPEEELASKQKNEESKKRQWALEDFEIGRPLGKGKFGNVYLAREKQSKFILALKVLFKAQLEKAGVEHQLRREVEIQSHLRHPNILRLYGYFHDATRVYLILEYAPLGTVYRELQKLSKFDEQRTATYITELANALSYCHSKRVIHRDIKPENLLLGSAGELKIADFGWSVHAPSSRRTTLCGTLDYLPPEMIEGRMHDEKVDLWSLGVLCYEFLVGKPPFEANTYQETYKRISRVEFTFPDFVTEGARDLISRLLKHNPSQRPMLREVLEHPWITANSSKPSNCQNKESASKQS

[4] = Oral bioavailability in cynomolgus monkey at 10 mg/kg; type: ADME, organism-based, Macaca fascicularis; conditions: in vivo
[5] = Oral AUC in cynomolgus monkey at 10 mg/kg, po; type: ADME, organism-based, Macaca fascicularis; design: dose 10 mg/kg, route oral; conditions: in vivo
[6] = Oral bioavailability in Beagle dog at 10 mg/kg; type: ADME, organism-based, Canis lupus familiaris; conditions: beagle, in vivo
[7] = Oral AUC in Beagle dog at 10 mg/kg, po; type: ADME, organism-based, Canis lupus familiaris; design: dose 10 mg/kg, route oral; conditions: in vivo
[8] = Oral bioavailability in Sprague-Dawley rat at 30 mg/kg; type: ADME, organism-based; conditions: in vivo
[9] = AUC in CD1 mouse at 50 mg/kg, po; type: ADME, organism-based; design: dose 50 mg/kg, route oral; conditions: plasma
[10] = Oral bioavailability in CD1 mouse at 50 mg/kg; type: ADME, organism-based; conditions: in vivo
[11] = Oral AUC in Sprague-Dawley rat at 30 mg/kg, po; type: ADME, organism-based; design: dose 30 mg/kg, route oral; conditions: in vivo
[12] = Plasma clearance in rat; type: ADME, organism-based

T1 sequence (Q96GD4 whole entry): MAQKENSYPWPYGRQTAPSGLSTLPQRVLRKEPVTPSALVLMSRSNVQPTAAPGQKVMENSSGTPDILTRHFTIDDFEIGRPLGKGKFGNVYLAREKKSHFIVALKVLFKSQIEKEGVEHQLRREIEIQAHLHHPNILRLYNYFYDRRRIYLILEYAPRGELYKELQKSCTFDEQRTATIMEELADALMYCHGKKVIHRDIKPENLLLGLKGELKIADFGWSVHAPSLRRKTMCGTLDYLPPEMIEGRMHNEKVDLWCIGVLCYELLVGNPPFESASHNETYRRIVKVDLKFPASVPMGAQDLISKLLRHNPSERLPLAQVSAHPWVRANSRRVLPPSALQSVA

| Structure (SMILES) | IC50 (Aurora kinase B [1]) [nM] | IC50 (Aurora kinase B [2]) [nM] | AUC(0-t) at 6 h [3] [µM·h] | IC50 (Aurora kinase A) [nM] | bioavailability [4] [%] | AUC [5] [µM·h] | bioavailability [6] [%] | AUC [7] [µM·h] | bioavailability [8] [%] | AUC [9] [µM·h] | bioavailability [10] [%] | AUC [11] [µM·h] | clearance [12] [mL/min/kg] |
| --- | --- | --- | --- | --- | --- | --- | --- | --- | --- | --- | --- | --- | --- |
| Cc1cn2c(-c3cn[nH]c3)cnc2c(Nc2cc(CN(CC(F)F)C(C)(C)CO)ns2)n1.Cl | ≤ 13 | 306 | 0.28 | ≤ 4 |  |  |  |  |  |  |  |  |  |
| Cl.[2H]C([2H])(NCCC(F)(F)F)c1cc(Nc2nc(C)cn3c(-c4cn[nH]c4)cnc23)sn1 |  |  |  |  |  |  |  |  |  |  |  |  | 5.1 |
| Cl.[2H]C([2H])(c1cc(Nc2nc(C)cn3c(-c4cn[nH]c4)cnc23)sn1)N1CCCCC1 |  |  |  |  |  |  |  |  |  |  |  |  | 35 |
| Cc1cn2c(-c3cn[nH]c3)cnc2c(Nc2cc(CN3CCCCC3)ns2)n1.Cl | ≤ 13 | 45 | 0.21 | ≤ 4 |  |  |  |  |  |  |  |  | 80 |
| Cc1cn2c(-c3cn[nH]c3)cnc2c(Nc2cc(CN3CCC(F)(F)CC3)ns2)n1.Cl | ≤ 13 | 74 | 0.95 | ≤ 4 |  |  |  |  |  |  |  |  |  |
| Cc1cn2c(-c3cn[nH]c3)cnc2c(Nc2cc(CN3CC[C@@H](F)C3)ns2)n1.Cl | ≤ 13 | 82 | 0.74 | ≤ 4 |  |  |  |  |  |  |  |  |  |
| Cc1cn2c(-c3cn[nH]c3)cnc2c(Nc2cc(CN3CC(F)C3)ns2)n1.O=C(O)C(F)(F)F | ≤ 13 | 191 | 0.18 | ≤ 4 |  |  |  |  |  |  |  |  |  |
| Cc1cn2c(-c3cn[nH]c3)cnc2c(Nc2cc(CN3CC(F)(F)C3)ns2)n1.O=C(O)C(F)(F)F | ≤ 13 | 76 | 12.1 | ≤ 4 |  | 0.1 |  | 3.8 | 12 | 7.1 |  | 7.1 |  |
| Cc1cn2c(-c3cn[nH]c3)cnc2c(Nc2cc(CN3CC(F)(F)C(F)(F)C3)ns2)n1.Cl | ≤ 13 | 50 | 0.11 | ≤ 4 |  |  |  |  |  |  |  |  |  |
| Cc1cn2c(-c3cn[nH]c3)cnc2c(Nc2cc(CN3CCCC(F)C3)ns2)n1.Cl (stereo not given) | ≤ 13 | 193 | 1.21 | ≤ 4 |  |  |  |  |  |  |  |  |  |
| Cc1cn2c(-c3cn[nH]c3)cnc2c(Nc2cc(CN3CC[C@H](F)C3)ns2)n1.Cl | ≤ 13 | 93 | 0.76 | ≤ 4 |  |  |  |  |  |  |  |  |  |

Now from value to compound:

| IC50 (Aurora kinase B [1]) [nM] | IC50 (Aurora kinase B [2]) [nM] | AUC(0-t) at 6 h [3] [µM·h] | IC50 (Aurora kinase A) [nM] | bioavailability [4] [%] | AUC [5] [µM·h] | bioavailability [6] [%] | AUC [7] [µM·h] | bioavailability [8] [%] | AUC [9] [µM·h] | bioavailability [10] [%] | AUC [11] [µM·h] | clearance [12] [mL/min/kg] | Structure (SMILES) |
| --- | --- | --- | --- | --- | --- | --- | --- | --- | --- | --- | --- | --- | --- |
| ≤ 13 | 86 | 2.2 | ≤ 4 | 3 | 0.4 | 38 | 6.1 | 21 | 1.2 | 10 | 8 |  | Cc1cn2c(-c3cn[nH]c3)cnc2c(Nc2cc(CN3CCC(F)CC3)ns2)n1.Cl |
| ≤ 13 | 198 | 0.86 | ≤ 4 |  |  |  |  |  |  |  |  |  | Cc1cn2c(-c3cn[nH]c3)cnc2c(Nc2cc(CN(CC(F)(F)F)C(C)(C)CO)ns2)n1.Cl |
| ≤ 13 | 88 |  | ≤ 4 |  |  |  |  |  |  |  |  |  | Cc1cn2c(-c3cn[nH]c3)cnc2c(Nc2cc(CN3CCCC3)ns2)n1 |
| ≤ 13 | 51 | 3.42 | ≤ 4 |  |  |  |  |  |  |  |  |  | Cc1cn2c(-c3cn[nH]c3)cnc2c(Nc2cc(CNCC(F)(F)C(F)(F)F)ns2)n1.Cl |
| ≤ 13 | 79 | 1.56 | ≤ 4 |  |  |  |  |  |  |  |  |  | Cc1cn2c(-c3cn[nH]c3)cnc2c(Nc2cc(CN3CCCC(F)(F)C3)ns2)n1.Cl |
| ≤ 13 | 63 | 10.9 | ≤ 4 |  | 0.03 |  | 0.3 | 22 | 11.1 |  | 20.5 | 12 | Cc1cn2c(-c3cn[nH]c3)cnc2c(Nc2cc(CNCCC(F)(F)F)ns2)n1.Cl |
| ≤ 13 | 218 | 1.34 | ≤ 4 |  |  |  |  |  |  |  |  |  | Cc1cn2c(-c3cn[nH]c3)cnc2c(Nc2cc(CN3CCC(C(F)(F)F)CC3)ns2)n1.Cl |

— ChEMBL document CHEMBL1649074, “Aurora kinase inhibitors based on the imidazo[1,2-a]pyrazine core: fluorine and deuterium incorporation improve oral absorption and exposure” (J Med Chem, 2011)
